For one molecule, IC50 results are on record in patent US11897881B1, “Substituted pyrido[3,4-b]indole-3-carboxylic acids as CK2 inhibitors” (KING FAISAL UNIVERSITY, priority 2023, dated 2024).

The structures appear in SMILES notation.

Assay [1] relates to MCF7 (breast). The assay can be described thus: In vitro cytotoxic activity assay (MTT), MCF7. It is filed as cell-based. The following applies: Homo sapiens; MCF7 (breast) cells, exposed for 96 hours; read-out: IC50, 50% inhibition of cell proliferation. The procedure: (§1) Compounds 1-15 were screened for their in vitro cytotoxic activity utilizing a 3-(4,5-dimethyl-thiazol-2-yl)-2,5-diphenyltetrazolium bromide (MTT) assay against selected cancer human cell lines consisting of PC3 (prostate), HCT116 (colon), A375 (melanoma), H1299 (lung), MIAPaCa-2 (pancreas), HL60 (leukemia), MCF7 (breast), MDA-MB-231 (breast) (T. Mosmann, J. Immunol. Meth., 1983, 65, 55-63). The cells were cultured at 37° C. in RMPI1640 medium supplemented with 10% fetal bovine serum, 50 IU/mL penicillin, and 50 μg/mL streptomycin in a 5% CO2 incubator. All cells were sub-cultured 3 times/week by trypsinisation. Viable cells were seeded and allowed to adhere for 12 h before a test drug was added in 96-well plates at an initial density of 1.0×10^5 cells/mL. Tumour cell lines were separately exposed to various concentrations of the tested compounds followed by incubation at a temperature of 37° C. during 96 h inside a medium of fresh RMPI 1640. Cells were subsequently incubated at 37° C. using MTT at 0.5 mg/mL during 4 h. After removal of supernatant, formazan crystals were dissolved in isopropanol and the optical density was measured at 570 nm. CX-4945 was used as a positive control.

Assay [2] deals with PC3 (prostate). The assay can be described thus: In vitro cytotoxic activity assay (MTT), PC3. It is filed as cell-based. Conditions: Homo sapiens, Prostate cell; PC3 (prostate) cells, exposed for 96 hours; read-out: IC50, 50% inhibition of cell proliferation. The procedure:
as §1

In assay [3] the test system is MIAPaCa-2 (pancreas). The assay can be described thus: In vitro cytotoxic activity assay (MTT), MIAPaCa-2. It counts as cell-based. The following applies: Homo sapiens, MIA PaCa-2; MIAPaCa-2 (pancreas) cells, exposed for 96 hours; read-out: IC50, 50% inhibition of cell proliferation. The procedure:
as §1

Assay [4] concerns MDA-MB-231 (breast). Nature of the assay: In vitro cytotoxic activity assay (MTT), MDA-MB-231. It counts as cell-based. The following applies: Homo sapiens; MDA-MB-231 (breast) cells, exposed for 96 hours; read-out: IC50, 50% inhibition of cell proliferation. Here is the method:
as §1

Assay [5] addresses T1, recombinant human CK2 (RRββ-holoenzyme) (Homo sapiens, UniProt P68400).
T1 construct: purchased Millipore
Nature of the assay: CK2 Kinase Assay (33P-ATP, filter plate). It is filed as biochemical. The following applies: final ATP concentration 15 μM, 10 min at 30° C., eight concentrations; read-out: protein kinase CK2 IC50. Here is the method: CK2 Kinase Assay was conducted using the protocol as described in Pierre F. et al; J. Med. Chem. 2011, 54, 635-654. The tested compounds in aqueous solution were added at a volume of 10 μL to a reaction mixture comprising 10 μL of assay dilution buffer (ADB; 20 mM MOPS, pH 7.2, 25 mM β-glycerol phosphate, 5 mM EGTA, 1 mM sodium orthovanadate, and 1 mM dithiothreitol), 10 μL of substrate peptide (RRRDDDSDDD, dissolved in ADB at a concentration of 1 mM), 10 μL of recombinant human CK2 (RRββ-holoenzyme, 25 ng dissolved in ADB; Millipore). Reactions were initiated by the addition of 10 μL of ATP solution (90% 75 mMMgCl2, 75 μM ATP (final ATP concentration:15 μM) dissolved in ADB; 10% [γ-33P] ATP (stock 1 mCi/100 μL; 3000 Ci/mmol (Perkin-Elmer) and maintained for 10 min at 30° C. The reactions were quenched with 100 μL of 0.75% phosphoric acid and then transferred to and filtered through a phosphor cellulose filter plate (Millipore). After washing each well five times with 0.75% phosphoric acid, the plate was dried under vacuum for 5 min and, following the addition of 15 μL of scintillation fluid to each well, the residual radioactivity was measured using a Wallac luminescence counter. The IC50 values were derived from eight concentrations of test inhibitors.

For assay [6], the system named is HCT116 (colon). The assay can be described thus: In vitro cytotoxic activity assay (MTT), HCT116. It is filed as cell-based. Conditions: Homo sapiens, HCT-116; HCT116 (colon) cells, exposed for 96 hours; read-out: IC50, 50% inhibition of cell proliferation. The procedure: as §1
The test system of assay [7] is H1299 (lung). The assay can be described thus: In vitro cytotoxic activity assay (MTT), H1299. It is filed as cell-based. The following applies: Homo sapiens, NCI-H1299; H1299 (lung) cells, exposed for 96 hours; read-out: IC50, 50% inhibition of cell proliferation. Here is the method: as §1
For assay [8], the system named is HL60 (leukemia). Nature of the assay: In vitro cytotoxic activity assay (MTT), HL60. It counts as cell-based. Conditions: Homo sapiens, HL-60; HL60 (leukemia) cells, exposed for 96 hours; read-out: IC50, 50% inhibition of cell proliferation. Here is the method:
as §1

The subject of assay [9] is A375 (melanoma). Nature of the assay: In vitro cytotoxic activity assay (MTT), A375. It counts as cell-based. Conditions: Homo sapiens, A-375; A375 (melanoma) cells, exposed for 96 hours; read-out: IC50, 50% inhibition of cell proliferation. The procedure: as §1

T1 sequence (P68400 whole entry): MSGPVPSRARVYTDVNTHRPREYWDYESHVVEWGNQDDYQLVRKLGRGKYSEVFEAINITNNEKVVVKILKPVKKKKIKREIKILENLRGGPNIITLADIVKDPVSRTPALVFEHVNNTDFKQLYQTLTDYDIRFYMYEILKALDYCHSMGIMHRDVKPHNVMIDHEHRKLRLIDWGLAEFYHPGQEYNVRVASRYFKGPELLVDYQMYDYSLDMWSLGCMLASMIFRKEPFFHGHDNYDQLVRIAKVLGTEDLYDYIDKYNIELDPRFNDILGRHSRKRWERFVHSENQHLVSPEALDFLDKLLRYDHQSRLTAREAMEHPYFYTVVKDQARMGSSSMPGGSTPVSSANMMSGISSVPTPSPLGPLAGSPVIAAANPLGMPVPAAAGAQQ
T1 sequence (P67870 whole entry partner): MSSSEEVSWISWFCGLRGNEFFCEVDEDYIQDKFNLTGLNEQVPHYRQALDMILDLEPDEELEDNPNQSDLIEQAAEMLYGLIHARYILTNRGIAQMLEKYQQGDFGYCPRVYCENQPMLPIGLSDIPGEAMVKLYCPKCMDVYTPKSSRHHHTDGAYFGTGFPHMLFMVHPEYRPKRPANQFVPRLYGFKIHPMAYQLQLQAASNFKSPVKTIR

Take `O=C(O)c1cc2c([nH]c3cc(O)ccc32)c(Nc2cccc(Cl)c2)n1` [Compound 1, 1-((3-chlorophenyl)amino)-7-hydroxy-9H-pyrido[3,4-b]indole-3-carboxylic Acid]: the IC50 in assay [1] is 3200 nM; in assay [2], 1200 nM; in assay [3] it was 3300 nM; in [4] it was 2500 nM; in assay [5] it was 165 nM; in assay [6] it was 1600 nM. Besides, the values for the IC50 in assay [7], in assay [8] and in assay [9] were 1800 nM, 4100 nM and 5700 nM, respectively.
